The structures appear in SMILES notation.

Data on 11 compounds can be found in patent US9357776B2, “Method for producing pest control agent” (priority 2011, dated 2016).

Data set [1] concerns Laodelphax striatellus. Nature of the data set: Test for control of Laodelphax striatellus, sensitive and resistant strains (rice soil drench). The format is in vivo. The settings on record: three days after release. The procedure: (§1) Rice plant seedlings grown in a pot were treated by soil drench with a liquid agent prepared to be 10% acetone-water, and to contain a predetermined concentration of a compound of the present invention. Three days after the treatment, 10 sensitive or resistant strain of second instar larvae of Laodelphax striatellus were released on each of the rice plant seedlings. After that the rice plant seedlings were allowed to stand in a thermostatic chamber at 25° C. (16-hour light period and 8-hour dark period). […] The test was duplicated. Mortality rate (%)=[Number of dead insects/(Number of survived insects+Number of dead insects)]×100
Note that the pests tested were insects bred for generations in a room for a long period (sensitive strain), and insects collected in Kumamoto Prefecture in 2006, and bred for generations in a room (field-collected strain: resistant strain).

Another data set deals with Plutella xylostella. Nature of the data set: Test for control of diamondback moth (leaf disk). The format is in vivo. The settings on record: in Brassica oleracea, foliar, 72 h, read-out: Mortality rate, Plutella xylostella. The procedure: (§2) A leaf disk having a diameter of 5.0 cm was cut out from cabbage grown in a pot. Then, a liquid agent prepared to be 50% acetone-water (to which 0.05% Tween20 was added) and to contain 500 ppm of a compound represented by formula (I) was spread over the leaf disk. After the leaf disk was air dried, second instar larvae were released on the leaf disk. After that, the leaf disk was allowed to stand in a thermostatic chamber at 25° C. (16-hour light period and 8-hour dark period). […] The test was duplicated. Mortality rate (%)=[Number of dead insects/(Number of survived insects+Number of dead insects)]×100

Another data set has as its system Aphis gossypii. Put plainly: Test for control of cotton aphid (leaf disk). The settings on record: in Cucumis sativus, foliar, 72 h, read-out: Mortality rate, Aphis gossypii. It is filed as in vivo. How it is done:
as §2, with “2.0” for “5.0”, “cucumber (Cucumis sativus L.)” for “cabbage”, “first” for “second”

Data set [2] relates to Laodelphax striatellus. Nature of the data set: Test for control of Laodelphax striatellus (wheat seedling root treatment). The format is in vivo. The following applies: 96 h, read-out: Mortality rate, Laodelphax striatellus. How it is done:
Roots of wheat seedlings 48 hours after seeding were each treated with 200 μL of a liquid agent prepared to be 10% acetone-water, and to contain 100 ppm of a compound represented by formula (I). The agent was absorbed through the roots for 72 hours, and then 10 second instar larvae of Laodelphax striatellus were released on each wheat seedling. After that, the wheat seedlings were allowed to stand in a thermostatic chamber at 25° C. (16-hour light period and 8-hour dark period). […] The test was duplicated.

A further data set concerns Nilaparvata lugens. Put plainly: Test for control of Nilaparvata lugens, sensitive and resistant strains (rice soil drench). It is filed as in vivo. The following applies: three days after release. The procedure: as §1, with “Nilaparvata lugens” for “Laodelphax striatellus”, “that,” for “that”
Note that the pests tested were as follows: Insects bred for generations in a room for a long period (sensitive strain), (I) Insects collected in Kumamoto Prefecture in 2007, and bred for generations in a room (field-collected strain: resistant strain), or (II) Insects collected in Fukuoka Prefecture in 2005, and bred for generations in a room (field-collected strain).

In data set [3] the test system is crude enzyme extraction liquid of housefly (Musca domestica). Put plainly: In vitro metabolism test using crude enzyme extraction liquid of housefly. The format is in vitro ADME. The following applies: 25° C., 40 hours, LC/MS. The procedure:
As described in Pest Management Science (2003), 59(3), 347-352, and Journal of Pesticide Science (2004), 29(2), 110-116, imidacloprid is known to be inactivated by oxidative metabolism, which is thought to be one of the mechanisms for the acquisition of the resistance. To investigate effects on insects acquiring such resistance, the following experiment was carried out.
To adult housefly (Musca domestica) (0.645 g), 10 ml of a potassium phosphate buffer (pH 7.4, containing 1 mM EDTA) was added, and the adult housefly was sufficiently ground with Physcotron (Nichion Irika Kikai Seisakusho). After that, the ground material was centrifuged under conditions of 10,000 g and 15 minutes. The obtained supernatant was further centrifuged under conditions of 100,000 g and 60 minutes. Thus, precipitates were obtained. The precipitates were dissolved in 1 ml of a potassium phosphate buffer, and this solution was used as a crude enzyme solution. The enzyme extraction operations were all conducted on ice or under a condition of 4° C.
Reagents were mixed with each other at the following ratio in a tube having a capacity of 1.5 mL, and allowed to react with each other at 25° C. for 40 hours. After the reaction, 1 mL of acetone was added to the mixture, followed by stirring. Then, the formed precipitates were removed by centrifugation at 12000 rpm for 5 minutes. […]

The test system of data set [4] is Haemaphysalis longicornis. Nature of the data set: Test for control of Haemaphysalis longicornis (dry film in glass vial). The settings on record: 24 h, read-out: Mortality rate. It is filed as in vivo. How it is done: Into a glass vial having a capacity of 4 mL, 30 μL of an acetone solution containing 200 ppm or 10 ppm of a compound of the present invention was introduced. The vial was placed on a shaker, and air dried, while being rotated. Thus, a dry film of the compound was formed on the inner wall of the vial. After the vial was dried for 24 hours or longer, 10 larvae of Haemaphysalis longicornis were released in the vial, and then the vial was capped. The vial was allowed to stand in a thermostatic chamber under conditions of 25° C., a humidity of 85%, and total darkness. […] The test was duplicated. Mortality rate (%)=[Number of dead insects/(Number of survived insects+Number of dead insects)]×100

In data set [5] the test system is Haemaphysalis longicornis. Nature of the data set: Effect of controlling Haemaphysalis longicornis on body surface of mouse. It is filed as in vivo. The settings on record: mouse (ICR, male), 20 μL of 1000-fold diluted drop preparation (48% by weight Compound 1 in ethanol), three days after release. How it is done:
Hair on the back of a mouse (ICR, male, 5-weeks old) in a region having a diameter of approximately 2 cm was shaved, and a 15-mL polystyrene conical tube cut to have a height of approximately 1.5 cm was bonded to this region with an instant adhesive.
Then, 20 μL of a 1000-fold diluted liquid of a pest control agent prepared according to the following formulation was added dropwise onto the body surface of the mouse within the bonded tube. After sufficient drying, […] larvae of Haemaphysalis longicornis were released into the tube, and the tube was capped.
Formulation [Drop Preparation]
The components were uniformly mixed with each other, and a drop preparation was obtained. blood-sucking inhibition rate (%)=100−[Number of […]/(Number of survived ticks+Number of dead ticks)]×100

[6] abbreviates: 0.01 mg/seedling, field-collected strain (Kumamoto 2006, resistant).
Setting [7] is: 0.01 mg/seedling, sensitive strain.
Setting [8] is: 0.005 mg/seedling, all the strains.
Setting [9] is: 0.01 mg/seedling, strain (II) (Fukuoka 2005, field-collected).

For the compound `N#Cc1nn(-c2c(Cl)cc(C(F)(F)F)cc2Cl)c(N)c1[S+]([O-])C(F)(F)F` (stereo not shown) [fipronil], the Mortality rate with Laodelphax striatellus [1] (setting [6]) worked out at 70%; in the data set with Laodelphax striatellus [1] (setting [7]), 100%.
For the compound `O=C(N=c1ccccn1Cc1ccc(Cl)nc1)C(F)F` [Compound 8, N-[1-((6-Chloropyridin-3-yl)methyl)pyridin-2(1H)-ylidene]-2,2-difluoroacetamide], the mortality at 500 ppm in the data set on Plutella xylostella and in the data set with Aphis gossypii was 100% in each case. For the same compound, the mortality (as a rule, the percentage killed) at 100 ppm in the data set with Laodelphax striatellus [2] was 100%.
Consider `O=C(N=c1ccccn1Cc1ccc(Cl)nc1)C(F)(F)C(F)(F)F` [Compound 7, N-[1-((6-Chloropyridin-3-yl)methyl)pyridin-2(1H)-ylidene]-2,2,3,3,3-pentafluoropropanamide], for which the mortality at 500 ppm in the data set on Plutella xylostella and in the data set on Aphis gossypii was 100% each time. For the same compound, the mortality at 100 ppm in the data set on Laodelphax striatellus [2] was 100%.
On to `O=C(N=c1ccccn1Cc1ccc(Cl)nc1)C(F)(F)F` [Compound 1, N-[1-((6-Chloropyridin-3-yl)methyl)pyridin-2(1H)-ylidene]-2,2,2-trifluoroacetamide], for which the mortality at 500 ppm in the data set on Plutella xylostella and with Aphis gossypii was 100% in each case. In addition, the mortality at 100 ppm in the data set with Laodelphax striatellus [2] was 100%. Further, the Mortality rate was ≥ 90% in the data set on Nilaparvata lugens (setting [8]); 100% in the data set on Nilaparvata lugens (0.05 mg/seedling, all the strains); ≥ 90% in the data set with Laodelphax striatellus [1] (setting [8]). The “total area percentage of metabolites” value in data set [3] is listed as 0.08. In data set [4], the mortality at 10 ppm is ≥ 80%. Besides, the mortality at 200 ppm in data set [4] is ≥ 80%. In data set [5], this compound yielded a blood-sucking inhibition rate of 91%.
In the case of `O=C(N=c1ccccn1Cc1cnc(Cl)c(F)c1)C(F)(F)F` [Compound 2, N-[1-((6-Chloro-5-fluoropyridin-3-yl)methyl)pyridin-2(1H)-ylidene]-2,2,2-trifluoroacetamide], the mortality at 500 ppm with Plutella xylostella and in the data set with Aphis gossypii was 100% throughout. Also, the mortality at 100 ppm in the data set with Laodelphax striatellus [2] worked out at 100%. The values for the Mortality rate in the data set on Nilaparvata lugens (setting [7]) and in the data set with Nilaparvata lugens (setting [9]) were 72% and 70%, respectively.
With `O=C(N=c1ccccn1Cc1ccc(F)nc1)C(F)(F)F` [Compound 19, N-[1-((6-fluoropyridin-3-yl)methyl)pyridin-2(1H)-ylidene]-2,2,2-trifluoroacetamide], the mortality at 500 ppm with Plutella xylostella and with Aphis gossypii was 100% each time. Further, the mortality at 100 ppm in the data set with Laodelphax striatellus [2] came out at 100%. Moreover, the Mortality rate turned out to be 100% in the data set on Nilaparvata lugens (setting [7]) and 93% in the data set with Nilaparvata lugens (setting [9]).
In the case of `O=C(N=c1ccccn1Cc1ccc(Cl)nc1)C(Cl)(Cl)Cl` [Compound 5, 2,2,2-Trichloro-N-[1-((6-chloropyridin-3-yl)methyl)pyridin-2(1H)-ylidene]acetamide], the mortality at 500 ppm with Plutella xylostella turned out to be 100%; in the data set with Aphis gossypii, 95%. In the data set with Laodelphax striatellus [2], the mortality at 100 ppm was 75%.
As to `O=C(N=c1ccccn1Cc1ccc(Br)nc1)C(F)(F)F` [Compound 3, N-[1-((6-Bromopyridin-3-yl)methyl)pyridin-2(1H)-ylidene]-2,2,2-trifluoroacetamide], the mortality at 500 ppm in the data set on Plutella xylostella and in the data set with Aphis gossypii was 100% throughout. Further, the mortality at 100 ppm with Laodelphax striatellus [2] amounted to 100%. For the same compound, the Mortality rate came out at 90% with Laodelphax striatellus [1] (setting [6]) and 100% with Laodelphax striatellus [1] (setting [7]).
`O=C(N=c1ccccn1Cc1cnc(Cl)nc1)C(F)(F)F` [Compound 6, N-[1-((2-Chloropyrimidin-5-yl)methyl)pyridin-2(1H)-ylidene]-2,2,2-trifluoroacetamide]: the mortality at 500 ppm in the data set on Plutella xylostella and in the data set on Aphis gossypii was 100% each time. Also, in the data set on Laodelphax striatellus [2], the mortality at 100 ppm was determined as 100%.
Take `O=C(N=c1ccccn1Cc1ccc(Cl)nc1)C(F)(F)Cl` [Compound 4, 2-chloro-N-[1-((6-Chloropyridin-3-yl)methyl)pyridin-2(1H)-ylidene]-2,2-difluoroacetamide]: the mortality at 500 ppm with Plutella xylostella and in the data set on Aphis gossypii was 100% in each case. In the data set with Laodelphax striatellus [2], the mortality at 100 ppm came to 100%.
With `O=[N+]([O-])NC1=NCCN1Cc1ccc(Cl)nc1` [imidacloprid, reference compound], the Mortality rate came to 100% in the data set on Nilaparvata lugens (0.05 mg/seedling, sensitive strain); 40% in the data set with Nilaparvata lugens (0.05 mg/seedling, strain (I) (Kumamoto 2007, resistant strain)); 60% in the data set with Nilaparvata lugens (0.05 mg/seedling, strain (II) (Fukuoka 2005, field-collected)); 50% in the data set with Laodelphax striatellus [1] (setting [6]); 100% in the data set on Laodelphax striatellus [1] (setting [7]). In addition, the “total area percentage of metabolites” value in data set [3] is reported as 2.55. In data set [4], the mortality at 10 ppm was 4%.
